Here are results for 22 compounds from US9617253B2, “Molecules having pesticidal utility, and intermediates, compositions, and processes, related thereto” (Dow AgroSciences LLC, priority 2015, dated 2017).

Data set [1] deals with Beet Armyworm (Spodoptera exigua, LAPHEG). Put plainly: Bioassay on Beet Armyworm (BAW), 128-well diet tray assay. Format: in vivo. The settings on record: 168 h, second instar BAW larvae, 50 μg/cm^2 on artificial diet, 25° C., five to seven days, average of eight wells, read-out: BAW % Control (or Mortality) rating. As for the experimental part:
(§1) Certain molecules disclosed in this document were tested against BAW and CL using procedures described in the following examples. In the reporting of the results, the “BAW & CL Rating Table” was used (See Table Section).
Bioassays on BAW were conducted using a 128-well diet tray assay. One to five second instar BAW larvae were placed in each well (3 mL) of the diet tray that had been previously filled with 1 mL of artificial diet to which 50 μg/cm^2 of the test molecule (dissolved in 50 μL of 90:10 acetone-water mixture) had been applied (to each of eight wells) and then allowed to dry. Trays were covered with a clear self-adhesive cover, vented to allow gas exchange, and held at 25° C., 14:10 light-dark for five to seven days. Percent mortality was recorded for the larvae in each well; activity in the eight wells was then averaged. The results are indicated in the table entitled “Table ABC: Biological Results” (See Table Section).

In data set [2] the test system is Cabbage Looper (Trichoplusia ni, TRIPNI). Kind of data set: Bioassay on Cabbage Looper (CL), 128-well diet tray assay. Type of data set: in vivo. The settings on record: 168 h, second instar CL larvae, 50 μg/cm^2 on artificial diet, 25° C., five to seven days, average of eight wells, read-out: CL % Control (or Mortality) rating. As for the experimental part: as §1
Bioassays on CL were conducted using a 128-well diet tray assay. One to five second instar CL larvae were placed in each well (3 mL) of the diet tray that had been previously filled with 1 mL of artificial diet to which 50 μg/cm^2 of the test molecule (dissolved in 50 μL of 90:10 acetone-water mixture) had been applied (to each of eight wells) and then allowed to dry. Trays were covered with a clear self-adhesive cover, vented to allow gas exchange, and held at 25° C., 14:10 light-dark for five to seven days. Percent mortality was recorded for the larvae in each well; activity in the eight wells was then averaged. The results are indicated in the table entitled “Table ABC: Biological Results” (See Table Section).

For orientation: melting point means the temperature of the solid-liquid transition. With `COC(C)c1ccc(C)cc1N1C(=O)CS/C1=N\C(=O)Nc1c(F)cc(OCc2ncn(-c3ccc(OC(F)(F)F)cc3)n2)cc1F` (stereo not drawn), the melting point lay in the range of 147 to 152 °C. Same read-out and setting: the value for `COCc1ccc(C)cc1N1C(=O)CS/C1=N\C(=O)Nc1ccc(OCc2ncn(-c3ccc(OC(F)(F)F)cc3)n2)cc1` was 165 to 167 °C; that for `COCc1ccc(C)cc1N1C(=O)CS/C1=N\C(=O)Nc1ccc(OCc2ncn(-c3ccc(OC(F)(F)F)cc3)n2)cc1F` was 132 to 134 °C.

`CCCc1ccc(C)cc1N1C(=O)CS/C1=N\C(=O)Nc1c(F)cc(OCc2ncn(-c3ccc(OC(F)(F)F)cc3)n2)cc1F` displayed a melting point of 169 to 172 °C.

Turning to `COCc1ccc(C)cc1N1C(=O)CS/C1=N\C(=O)Nc1ccc(OCc2ncn(-c3ccc(OC(F)(F)F)cc3)n2)cc1Cl`, the melting point lay within 148 to 150 °C.

One may read the mortality as the percentage killed. On to `COCc1ccc(C)cc1N1C(=O)CS/C1=N\C(=O)Nc1ccc(OCc2ncn(-c3ccc(OC(F)(F)F)cc3)n2)cc1C` [F27, (Z)-1-(3-(2-(Methoxymethyl)-5-methylphenyl)-4-oxothiazolidin-2-ylidene)-3-(2-methyl-4-((1-(4-(trifluoromethoxy)phenyl)-1H-1,2,4-triazol-3-yl)methoxy)phenyl)urea], for which the mortality at 50 µg/cm2 in data set [1] and in data set [2] was 50 to 100% in each case. In the case of `Cc1ccc(C(C)C)c(N2C(=O)CS/C2=N\C(=O)Nc2ccc(OCc3ncn(-c4ccc(OC(F)(F)F)cc4)n3)cc2Cl)c1` [F29, (Z)-1-(2-Chloro-4-((1-(4-(trifluoromethoxy)phenyl)-1H-1,2,4-triazol-3-yl)methoxy)phenyl)-3-(3-(2-isopropyl-5-methylphenyl)-4-oxothiazolidin-2-ylidene)urea], the mortality at 50 µg/cm2 in data set [1] and in data set [2] was 50 to 100% each time.

On to `CCCc1ccc(C)cc1N1C(=O)CS/C1=N\C(=O)Nc1ccc(OCc2ncn(-c3ccc(OC(F)(F)F)cc3)n2)cc1Cl` [F30, (Z)-1-(2-Chloro-4-((1-(4-(trifluoromethoxy)phenyl)-1H-1,2,4-triazol-3-yl)methoxy)phenyl)-3-(3-(5-methyl-2-propylphenyl)-4-oxothiazolidin-2-ylidene)urea], for which the mortality at 50 µg/cm2 in data set [1] and in data set [2] was 50 to 100% throughout. Turning to `COc1cc(OCc2ncn(-c3ccc(OC(F)(F)F)cc3)n2)ccc1NC(=O)/N=C1\SCC(=O)N1c1cc(C)ccc1C(C)C` [F32, (Z)-1-(3-(2-Isopropyl-5-methylphenyl)-4-oxothiazolidin-2-ylidene)-3-(2-methoxy-4-((1-(4-(trifluoromethoxy)phenyl)-1H-1,2,4-triazol-3-yl)methoxy)phenyl)urea], the mortality at 50 µg/cm2 in data set [1] and in data set [2] was 50 to 100% each time.

For the compound `CCCc1ccc(C)cc1N1C(=O)CS/C1=N\C(=O)Nc1ccc(OCc2ncn(-c3ccc(OC(F)(F)F)cc3)n2)cc1OC` [F33, (Z)-1-(2-Methoxy-4-((1-(4-(trifluoromethoxy)phenyl)-1H-1,2,4-triazol-3-yl)methoxy)phenyl)-3-(3-(5-methyl-2-propylphenyl)-4-oxothiazolidin-2-ylidene)urea], the mortality at 50 µg/cm2 in data set [1] and in data set [2] was 50 to 100% throughout. As for `COCc1ccc(C)cc1N1C(=O)CS/C1=N\C(=O)Nc1ccc(OCc2ncn(-c3ccc(OC(F)(F)F)cc3)n2)cc1OC` [F34, (Z)-1-(2-Methoxy-4-((1-(4-(trifluoromethoxy)phenyl)-1H-1,2,4-triazol-3-yl)methoxy)phenyl)-3-(3-(2-(methoxymethyl)-5-methylphenyl)-4-oxothiazolidin-2-ylidene)urea], the mortality at 50 µg/cm2 in data set [1] and in data set [2] was 50 to 100% in each case. For `Cc1ccc(C(C)C)c(N2C(=O)CS/C2=N\C(=O)Nc2ccc(OCc3ncn(-c4ccc(OC(F)(F)F)cc4)n3)c(F)c2)c1` [F35, (Z)-1-(3-Fluoro-4-((1-(4-(trifluoromethoxy)phenyl)-1H-1,2,4-triazol-3-yl)methoxy)phenyl)-3-(3-(2-isopropyl-5-methylphenyl)-4-oxothiazolidin-2-ylidene)urea], the mortality at 50 µg/cm2 in data set [1] and in data set [2] was 50 to 100% each time. With `CCCc1ccc(C)cc1N1C(=O)CS/C1=N\C(=O)Nc1ccc(OCc2ncn(-c3ccc(OC(F)(F)F)cc3)n2)c(F)c1` [F36, (Z)-1-(3-Fluoro-4-((1-(4-(trifluoromethoxy)phenyl)-1H-1,2,4-triazol-3-yl)methoxy)phenyl)-3-(3-(5-methyl-2-propylphenyl)-4-oxothiazolidin-2-ylidene)urea], the mortality at 50 µg/cm2 in data set [1] and in data set [2] was 50 to 100% in each case. In the case of `COCc1ccc(C)cc1N1C(=O)CS/C1=N\C(=O)Nc1ccc(OCc2ncn(-c3ccc(OC(F)(F)F)cc3)n2)c(F)c1` [F37, (Z)-1-(3-Fluoro-4-((1-(4-(trifluoromethoxy)phenyl)-1H-1,2,4-triazol-3-yl)methoxy)phenyl)-3-(3-(2-(methoxymethyl)-5-methylphenyl)-4-oxothiazolidin-2-ylidene)urea], the mortality at 50 µg/cm2 in data set [1] and in data set [2] was 50 to 100% throughout. For the compound `Cc1ccc(C(C)C)c(N2C(=O)CS/C2=N\C(=O)Nc2ccc(OCc3ncn(-c4ccc(OC(F)(F)F)cc4)n3)c(Cl)c2)c1` [F38, (Z)-1-(3-Chloro-4-((1-(4-(trifluoromethoxy)phenyl)-1H-1,2,4-triazol-3-yl)methoxy)phenyl)-3-(3-(2-isopropyl-5-methylphenyl)-4-oxothiazolidin-2-ylidene)urea], the mortality at 50 µg/cm2 in data set [1] and in data set [2] was 50 to 100% in each case. As to `CCCc1ccc(C)cc1N1C(=O)CS/C1=N\C(=O)Nc1ccc(OCc2ncn(-c3ccc(OC(F)(F)F)cc3)n2)c(Cl)c1` [F39, (Z)-1-(3-Chloro-4-((1-(4-(trifluoromethoxy)phenyl)-1H-1,2,4-triazol-3-yl)methoxy)phenyl)-3-(3-(5-methyl-2-propylphenyl)-4-oxothiazolidin-2-ylidene)urea], the mortality at 50 µg/cm2 in data set [1] and in data set [2] was 50 to 100% each time. Turning to `COCc1ccc(C)cc1N1C(=O)CS/C1=N\C(=O)Nc1ccc(OCc2ncn(-c3ccc(OC(F)(F)F)cc3)n2)c(Cl)c1` [F40, (Z)-1-(3-Chloro-4-((1-(4-(trifluoromethoxy)phenyl)-1H-1,2,4-triazol-3-yl)methoxy)phenyl)-3-(3-(2-(methoxymethyl)-5-methylphenyl)-4-oxothiazolidin-2-ylidene)urea], the mortality at 50 µg/cm2 in data set [1] and in data set [2] was 50 to 100% each time. Regarding `CCCc1ccc(C)cc1N1C(=O)CS/C1=N\C(=O)Nc1cc(F)c(OCc2ncn(-c3ccc(OC(F)(F)F)cc3)n2)c(F)c1` [F42, (Z)-1-(3,5-Difluoro-4-((1-(4-(trifluoromethoxy)phenyl)-1H-1,2,4-triazol-3-yl)methoxy)phenyl)-3-(3-(5-methyl-2-propylphenyl)-4-oxothiazolidin-2-ylidene)urea], the mortality at 50 µg/cm2 in data set [1] and in data set [2] was 50 to 100% throughout.

As to `COCc1ccc(C)cc1N1C(=O)CS/C1=N\C(=O)Nc1cc(F)c(OCc2ncn(-c3ccc(OC(F)(F)F)cc3)n2)c(F)c1` [F43, (Z)-1-(3,5-Difluoro-4-((1-(4-(trifluoromethoxy)phenyl)-1H-1,2,4-triazol-3-yl)methoxy)phenyl)-3-(3-(2-(methoxymethyl)-5-methylphenyl)-4-oxothiazolidin-2-ylidene)urea], the mortality at 50 µg/cm2 in data set [1] and in data set [2] was 50 to 100% throughout. On to `Cc1ccc(C(C)C)c(N2C(=O)CS/C2=N\C(=O)Nc2ccc(OCc3ncn(-c4ccc(OC(F)(F)F)cc4)n3)nc2)c1` [F44, (Z)-1-(3-(2-Isopropyl-5-methylphenyl)-4-oxothiazolidin-2-ylidene)-3-(6-((1-(4-(trifluoromethoxy)phenyl)-1H-1,2,4-triazol-3-yl)methoxy)pyridin-3-yl)urea], for which the mortality at 50 µg/cm2 in data set [1] and in data set [2] was 50 to 100% each time. For the compound `CCCc1ccc(C)cc1N1C(=O)CS/C1=N\C(=O)Nc1ccc(OCc2ncn(-c3ccc(OC(F)(F)F)cc3)n2)nc1` [F45, (Z)-1-(3-(5-Methyl-2-propylphenyl)-4-oxothiazolidin-2-ylidene)-3-(6-((1-(4-(trifluoromethoxy)phenyl)-1H-1,2,4-triazol-3-yl)methoxy)pyridin-3-yl)urea], the mortality at 50 µg/cm2 in data set [1] is 0 to 50%; in data set [2], 0%. As to `COCc1ccc(C)cc1N1C(=O)CS/C1=N\C(=O)Nc1ccc(OCc2ncn(-c3ccc(OC(F)(F)F)cc3)n2)nc1` [F46, (Z)-1-(3-(2-(Methoxymethyl)-5-methylphenyl)-4-oxothiazolidin-2-ylidene)-3-(6-((1-(4-(trifluoromethoxy)phenyl)-1H-1,2,4-triazol-3-yl)methoxy)pyridin-3-yl)urea], the mortality at 50 µg/cm2 in data set [1] was 0 to 50%; in data set [2], 0%.
